# Experimental data from US20100029657A1, “Bridged, Bicyclic Heterocyclic or Spiro Bicyclic Heterocyclic Derivatives of Pyrazolo[1, 5-A]Pyrimidines, Methods for Preparation and Uses Thereof” (Wyeth, priority 2008, published 2010).
# Biological target: T1, Flag/GST-tagged recombinant human B-Raf (Homo sapiens, UniProt P15056)
# T1 construct: Flag; GST; made in house; host or cells: Sf9 insect cells (B-Raf); E. coli (MEK1-GST)
# Test: B-Raf kinase assay (phosphorylation of GST-MEK1, phospho-MEK1 antibody/Europium detection)
# Assay type: biochemical
# Settings: B-Raf IC50 Data for compounds of Formula A; read-out: Mean IC50
# Experimental: B-Raf1 Kinase Assay Procedure: B-Raf-1 is used to phosphorylate GST-MEK1.
# • 1. Assay Dilution Buffer (ADB): 20 mM MOPS, pH 7.2, 25 mM β-glycerol phosphate, 5 mM EGTA, 1 mM sodium orthovanadate, 1 mM dithiothreitol, 0.01% Triton X-100. • 2. Magnesium/ATP Cocktail: ADB solution (minus Triton X-100) plus 200 μM cold ATP and 40 mM magnesium chloride. • 4. Active Kinase: Active B-Raf: Used at 0.2 nM per assay point. • 5. […] TBST—Tris (50 mM, pH 7.5), NaCl (150 mM), Tween-20 (0.05%) • 7. Anti-GST Ab (GE) • 8. Anti pMEK Ab (Upstate) • 9. Anti-rabbit Ab/Europium conjugate (Wallac).
# B-Raf Assay Procedure: • 1. Added 25 μL of ADB containing B-Raf and Mek per assay (i.e. per well of a 96 well plate) • 2. Added 25 μL of 0.2 mM ATP and 40 mM magnesium chloride in Magnesuium/ATP Cocktail. • 3. Incubated for 45 minutes at RT with occasional shaking. • 4. Transferred this mixture to an anti-GST Ab coated 96 well plate (Nunc Immunosorb plates coated o/n with a-GST. Plate freshly washed 3×with TBS-T before use. • 5. Incubated o/n at […] in cold room. • 6. Washed 3× with TBST, ed Anti-Phospho MEK1 (1:1000, dilution depended upon lot) • 7. Incubated for 60 minutes at RT in a shaking incubator • 8. Washed 3× with TBST, add Anti-rabbit Ab/Europium conjugate (Wallac) (1:500, dilution depended upon lot) • 9. Incubated for 60 minutes at RT on a platform shaker. • 10. Washed plate 3× with TBS-T • 11. Added 100 μL of Wallac Delfia Enhancement Solution and agitated for 10 minutes. • 12. Read plates in Wallac Victor model Plate Reader. • 13.
# The % inhibition was determined for each compound concentration.
# T1 sequence (P15056 whole entry): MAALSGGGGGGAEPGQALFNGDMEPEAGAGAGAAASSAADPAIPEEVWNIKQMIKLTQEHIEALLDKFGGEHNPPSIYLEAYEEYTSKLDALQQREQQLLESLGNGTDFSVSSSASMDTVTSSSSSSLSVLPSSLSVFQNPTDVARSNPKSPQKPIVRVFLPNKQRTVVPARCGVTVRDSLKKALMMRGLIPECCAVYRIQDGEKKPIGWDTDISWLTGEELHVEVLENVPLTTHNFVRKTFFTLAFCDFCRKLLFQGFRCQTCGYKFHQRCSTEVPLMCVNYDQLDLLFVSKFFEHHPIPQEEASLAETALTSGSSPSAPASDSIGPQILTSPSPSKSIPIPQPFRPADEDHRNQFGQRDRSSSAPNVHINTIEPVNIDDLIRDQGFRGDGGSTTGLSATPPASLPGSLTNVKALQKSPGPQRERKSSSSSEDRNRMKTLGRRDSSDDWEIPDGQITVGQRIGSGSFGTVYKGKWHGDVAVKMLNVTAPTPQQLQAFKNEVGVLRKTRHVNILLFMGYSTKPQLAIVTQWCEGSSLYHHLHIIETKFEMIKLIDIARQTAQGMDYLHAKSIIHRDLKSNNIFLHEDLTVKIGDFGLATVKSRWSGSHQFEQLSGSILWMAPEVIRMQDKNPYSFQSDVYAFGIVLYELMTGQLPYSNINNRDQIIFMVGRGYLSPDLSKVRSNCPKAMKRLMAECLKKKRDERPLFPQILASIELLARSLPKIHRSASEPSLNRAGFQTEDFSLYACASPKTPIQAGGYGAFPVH
row,Structure (SMILES),IC50 [nM]
1,"CCOC(=O)N1C2CCC1CC(c1ccnc3c(-c4cccc(F)c4F)c(-c4ccncc4)nn13)C2 (stereo not drawn) [Example 65, Ethyl 3-(3-(2,3-difluorophenyl)-2-(pyridin-4-yl)pyrazolo[1,5-a]pyrimidin-7-yl)-8-azabicyclo[3.2.1]octane-8-carboxylate]",302
2,"COc1cccc(-c2c(-c3ccncc3)nn3c(-c4ccc(N5C[C@@H]6C[C@H]5CN6)cc4F)ccnc23)c1 [Example 132, 7-{4-[(1S,4S)-2,5-diazabicyclo[2.2.1]hept-2-yl]-2-fluorophenyl}-3-(3-methoxyphenyl)-2-pyridin-4-ylpyrazolo[1,5-a]pyrimidine]",0.4
3,"Cc1cc(N2C[C@@H]3C[C@H]2CN3C)ccc1-c1ccnc2c(-c3cccc(O)c3)c(-c3ccncc3)nn12 [Example 58, 3-(7-(2-Methyl-4-((1S,4S)-5-methyl-2,5-diazabicyclo[2.2.1]heptan-2-yl)phenyl)-2-(pyridin-4-yl)pyrazolo[1,5-a]pyrimidin-3-yl)phenol]",< 0.3
4,"CCN1C2CCC1CC(c1ccnc3c(-c4ccc(NC(=O)OC)cc4)c(-c4ccncc4)nn13)C2 (stereo not drawn) [Example 67, Methyl 4-(7-(8-ethyl-8-azabicyclo[3.2.1]octan-3-yl)-2-(pyridin-4-yl)pyrazolo[1,5-a]pyrimidin-3-yl)phenylcarbamate]",> 1000
5,"Fc1ccc(-c2ccnc3c(-c4cccc5[nH]ncc45)c(-c4ccncc4)nn23)c(N2C[C@@H]3C[C@H]2CN3)c1 [Example 46, 7-(2-((1S,4S)-2,5-Diazabicyclo[2.2.1]heptan-2-yl)-4-fluorophenyl)-3-(1H-indazol-4-yl)-2-(pyridin-4-yl)pyrazolo[1,5-a]pyrimidine]",3.2
6,"CC(=O)Oc1cc(-c2c(-c3ccncc3)nn3c(C4CC5CCC(C4)N5C(C)=O)ccnc23)ccc1Cl (stereo not drawn) [Example 15, 5-[7-(8-Acetyl-8-azabicyclo[3.2.1]oct-3-yl)-2-pyridin-4-ylpyrazolo[1,5-a]pyrimidin-3-yl]-2-chlorophenyl acetate]",10
7,"CN1C[C@@H]2C[C@H]1CN2c1ccc(-c2ccnc3c(-c4ccc(Cl)c5[nH]ncc45)c(-c4ccncc4)nn23)cn1 [Example 41, 3-(7-Chloro-1H-indazol-4-yl)-7-(6-((1S,4S)-5-methyl-2,5-diazabicyclo[2.2.1]heptan-2-yl)pyridin-3-yl)-2-(pyridin-4-yl)pyrazolo[1,5-a]pyrimidine]",< 0.3
8,"CCN1C2CCC1CC(c1ccnc3c(-c4ccc(NC=O)c(O)c4)c(-c4ccncc4)nn13)C2 (stereo not drawn) [Example 72a, N-(4-(7-(8-Ethyl-8-azabicyclo[3.2.1]octan-3-yl)-2-(pyridin-4-yl)pyrazolo[1,5-a]pyrimidin-3-yl)-2-hydroxyphenyl)formamide]",566
9,"CN1C[C@@H]2C[C@H]1CN2c1c(F)cc(-c2ccnc3c(-c4cccc5[nH]ncc45)c(-c4ccncc4)nn23)cc1F [Example 164, 7-{3,5-difluoro-4-[(1S,4S)-5-methyl-2,5-diazabicyclo[2.2.1]hept-2-yl]phenyl}-3-(1H-indazol-4-yl)-2-pyridin-4-ylpyrazolo[1,5-a]pyrimidine]",9.6
10,"CN1C2CCC1CN(c1ccc(-c3ccnc4c(-c5cccc(O)c5)c(-c5ccncc5)nn34)cc1)C2 [Example 25, 3-{7-[4-(8-Methyl-3,8-diaza-bicyclo[3.2.1]oct-3-yl)-phenyl]-2-pyridin-4-yl-pyrazolo[1,5-a]pyrimidin-3-yl}-phenol]",1
11,"Fc1ccc(-c2c(-c3ccncc3)nn3c2nccc3[C@H]2CC[C@@H](N3C4CCC3COC4)CC2)c2cn[nH]c12 (relative stereo) [Example 181, 3-(7-fluoro-1H-indazol-4-yl)-7-[cis-4-(3-oxa-8-azabicyclo[3.2.1]oct-8-yl)cyclohexyl]-2-pyridin-4-ylpyrazolo[1,5-a]pyrimidine]",2.1
12,"Fc1cc(CN2C[C@@H]3C[C@H]2CO3)ccc1-c1ccnc2c(-c3cccc4[nH]ncc34)c(-c3ccncc3)nn12 [Example 206, 7-{2-fluoro-4-[(1S,4S)-2-oxa-5-azabicyclo[2.2.1]hept-5-ylmethyl]phenyl}-3-(1H-indazol-4-yl)-2-pyridin-4-ylpyrazolo[1,5-a]pyrimidine]",1.5
13,"Oc1cccc(-c2c(-c3ccncc3)nn3c(-c4ccc(N5C[C@@H]6C[C@H]5CN6)cc4Cl)ccnc23)c1 [Example 59, 3-(7-(4-((1S,4S)-2,5-Diazabicyclo[2.2.1]heptan-2-yl)-2-chlorophenyl)-2-(pyridin-4-yl)pyrazolo[1,5-a]pyrimidin-3-yl)phenol]",< 0.3
14,"c1cc(-c2c(-c3ccncc3)nn3c(-c4ccc(N5C[C@@H]6CC[C@H]5CN6)cc4)ccnc23)c2cn[nH]c2c1 [Example 144, 7-{4-[(1S,4S)-2,5-diazabicyclo[2.2.2]oct-2-yl]phenyl}-3-(1H-indazol-4-yl)-2-pyridin-4-ylpyrazolo[1,5-a]pyrimidine]",0.6
15,"CN1C[C@@H]2C[C@H]1CN2c1cccc(-c2ccnc3c(-c4cccc5[nH]ncc45)c(-c4ccncc4)nn23)c1 [Example 126, 3-(1H-indazol-4-yl)-7-{3-[(1S,4S)-5-methyl-2,5-diazabicyclo[2.2.1]hept-2-yl]phenyl}-2-pyridin-4-ylpyrazolo[1,5-a]pyrimidine]",61.2
16,"COc1cc(-c2c(-c3ccncc3)nn3c(-c4ccc(N5C[C@@H]6C[C@H]5CN6)cc4)ccnc23)ccc1F [Example 32, 7-(4-((1S,4S)-2,5-Diaza-bicyclo[2.2.1]heptan-2-yl)phenyl)-3-(4-fluoro-3-methoxyphenyl)-2-(pyridin-4-yl)pyrazolo[1,5-a]pyrimidine]",8.7
17,"Fc1ccc(-c2c(-c3ccncc3)nn3c2nccc3[C@H]2CC[C@@H](N3C[C@@H]4C[C@H]3CN4)CC2)c2cn[nH]c12 [Example 176, 7-{cis-4-[(1S,4S)-2,5-diazabicyclo[2.2.1]hept-2-yl]cyclohexyl}-3-(7-fluoro-1H-indazol-4-yl)-2-pyridin-4-ylpyrazolo[1,5-a]pyrimidine]",1
18,"CCN1C2CCC1CC(c1ccnc3c(-c4ccc(NC=O)c(OC)c4)c(-c4ccncc4)nn13)C2 (stereo not drawn) [Example 72b, N-(4-(7-(8-ethyl-8-azabicyclo[3.2.1]octan-3-yl)-2-(pyridin-4-yl)pyrazolo[1,5-a]pyrimidin-3-yl)-2-methoxyphenyl)formamide]",417
19,"O=C([C@@H]1CCCN1)N1C2CCC1CC(c1ccnc3c(-c4cccc5[nH]ncc45)c(-c4ccncc4)nn13)C2 (stereo partly drawn) [Example 129, 3-(1H-indazol-4-yl)-7-(8-L-prolyl-8-azabicyclo[3.2.1]oct-3-yl)-2-pyridin-4-ylpyrazolo[1,5-a]pyrimidine]",2.1
20,"c1cc(-c2c(-c3ccncc3)nn3c2nccc3[C@H]2CC[C@@H](N3C[C@@H]4C[C@H]3CN4)CC2)c2cn[nH]c2c1 [Example 149, 7-{cis-4-[(1S,4S)-2,5-diazabicyclo[2.2.1]hept-2-yl]cyclohexyl}-3-(1H-indazol-4-yl)-2-pyridin-4-ylpyrazolo[1,5-a]pyrimidine]",3.2
21,"CN1C[C@@H]2C[C@H]1CN2c1cc(F)c(-c2ccnc3c(-c4cccc5[nH]ncc45)c(-c4ccncc4)nn23)cc1F [Example 166, 7-{2,5-difluoro-4-[(1S,4S)-5-methyl-2,5-diazabicyclo[2.2.1]hept-2-yl]phenyl}-3-(1H-indazol-4-yl)-2-pyridin-4-ylpyrazolo[1,5-a]pyrimidine]",0.4
